Results taken from patent publication US8741807B2 (priority 2011, dated 2014).
Where two headings read alike, the source gives them in different places.

Tested on: rice blast fungus (Kyu89-246, MAFF101506, race 003.0)
Type: in vivo
Conditions: inoculated next day, 6 days after inoculation, five-leaf stage

Row | SMILES | resistance to rice blast (number of lesions) (sprayed at 1 mM) | resistance to rice blast (number of lesions) (sprayed at 5 mM)
1 | NCCCCNCCCNC(=O)CCCCCCCCCCCO [YIS12OH1N, 1-N-(12-hydroroxylauroyl)-spermidine] | provided the resistance | showed resistance to rice blast
2 | NCCCCN(CCCN)C(=O)CCCCCCCCCCCO [YIS12OH4N, ^4N-(12-hydroroxylauroyl)-spermidine] |  | showed resistance to rice blast
